Entries after “also recorded” stand apart in the source; their conditions may differ.
Experiments:
[1] = target: σ1R-σ2R (Mus musculus, UniProt O55242); test: σ1R/σ2R coprecipitation from CHO cells cotransfected with cMyc-σ1R and HA-σ2R; type: cell-based, Chinese hamster ovary (CHO) cells; set-up: Full-length sigma receptors were subcloned in frame; expressed in transfected cells; host or cells: CHO cells; details: peptides 1 nM, PRE084, S1RA and BD1047 100 nM; 30 min in serum-free medium
Method: Effect of β-End 1–31 and ^αN-acetyl derivative. (A) Single-wavelength and merged images of CHO cells cotransfected with cMyc-σ1R and HA-σ2R. The cells were fixed 48 h after transfection and analyzed by confocal laser scanning microscopy. Transient expression of proteins within the transfected cells was detected with anti-cMyc (green) and anti-HA (red) antibodies (original magnification 10×). […] Scale bar: 30 µm. (B) Nuclei stained with DAPI (blue). (C–F) Single-wavelength and merged images are enlargements of individual cells. Scale bar: 5 µm. Lower panels: (G) Immunoprecipitation (IP) of tagged sigma receptor types from cotransfected CHO cells. […] Representative blots are shown.
CHO cells were cultured in modified Eagle’s medium/nutrient mixture F-12 (DMEM/F12) supplemented with GlutaMax (#31331028, ThermoFisher, Spain), 10% foetal bovine serum (#10500064, ThermoFisher), 100 IU/mL penicillin and 100 μg/mL streptomycin (#15140148, ThermoFisher) at 37 °C in a humidified 5% CO2 incubator as described previously. Full-length sigma receptors were subcloned in frame into the pSF-CMV-Puro-NH2-CMyc N-terminal tag (σ1R, #OGS3214, Merck-Sigma) and pSF-CMV-Puro-NH2-HA N-terminal tag (σ2R, #OGS1500, Merck-Sigma) mammalian plasmids using standard cloning strategies. CHO cells were seeded on 12-well plates at a concentration of 0.35 × 10^6 cells per well, grown in Opti-MEM™ I Reduced Serum Medium (#31985070, ThermoFisher) to 70–80% confluence, transfected using Lipofectamine 2000 (#11668030, Invitrogen) and incubated for 24 h prior to testing for transgene expression. For all experiments, the culture medium was replaced with serum-free medium before the addition of sigma ligands and incubated for 30 min. Cells were then harvested and cellular extracts were prepared for immunoprecipitation analysis. Receptors were detected by Western blot analysis using an antibody that recognizes either tag: Myc-tag (#MA1 21316 BTIN, Invitrogen), HA-tag (#26183-BTIN, Invitrogen).

[2] = target: T1, σ1R-BiP (Mus musculus, UniProt O55242); test: In vitro σ1R-BiP association of recombinant proteins (Western blot); type: biochemical; details: for effect on σ1R-BiP association: increasing concentrations, 30 min RT, vs control without ligand; for activity at σ1R-BiP against agonists / β-End 1–31: 1 nM β-End 1–31 with increasing competitor (Figure S10)
T1 construct: The coding region of the full-length murine σ1R (AF004927); GST (N, cleaved yes); host or cells: E. coli BL21 (KRX) for σ1R
T1 sequence (O55242 whole entry): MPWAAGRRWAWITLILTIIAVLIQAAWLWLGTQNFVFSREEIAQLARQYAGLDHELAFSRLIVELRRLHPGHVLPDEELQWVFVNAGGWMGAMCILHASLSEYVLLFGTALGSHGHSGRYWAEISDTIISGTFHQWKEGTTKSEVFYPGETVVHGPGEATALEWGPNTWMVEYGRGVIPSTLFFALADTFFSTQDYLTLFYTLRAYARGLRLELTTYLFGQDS
Method: Figure 7 Effect of β-End 1–31, ^αN-acetyl β-End 1–31 and their N-terminal derivatives on σ1R-σ2R, σ1R-NR1 C1 and σ1R-BiP associations. Amino acid sequence of β-End 1–31 showing derivatives 1–26 and 1–27. (A) HaloLink-attached σ2Rs were incubated for 30 min at RT in the presence of σ1Rs (100 nM) in 300 μL of 50 mM Tris-HCl (pH 7.4), 0.2% CHAPS, and 2.5 mM CaCl2. After removing the unbound σ1R proteins, the effects of increasing the peptide concentrations on σ1R-σ2R associations were studied. At the end of the incubation, protein complexes bound to HaloLink-σ2R were obtained by centrifugation, washed three times, solubilized in 2× Laemmli buffer containing β-mercaptoethanol, resolved by SDS-PAGE, and analyzed by Western blotting (for more details, see Section 4). This protocol was also used to assess the effect of ligands on (B) σ1R-NR1 C1 and (C) σ1R-BiP associations. Data were compared to that of the control, which was obtained in the absence of ligands. (A–C) Data are the mean ± SD, n = 3. (D) The β-End 1–31 structural models were predicted by Novafold (DNASTAR Lasergene protein v.17, Inc., Madison, WI, USA). Ribbon model: The 3D structure, charge distribution and hydrophobicity map of β-End 1–31 are shown. Positive charges are shown in red and negative charges in blue. Polar surfaces are shown in yellow, and nonpolar surfaces are shown in orange. Linear model: the opioid (1–5) and flexible region (8–11) sequences are shown in green and orange, respectively, and the amphiphilic helix (15–25) is shown in pink.
The recombinant σ1R (100 nM) was incubated either with Haloprotein (negative control) or together with the immobilized σ2R, NR1 C0-C1-C2 or BiP proteins in 300 µL of a buffer containing 50 mM Tris-HCl (pH 7.4) and 0.2% CHAPS in the presence of 2.5 mM CaCl2 for 30 min at RT. After removal of the unbound σ1R, the agarose-attached complexes were incubated for 30 min with rotation at RT in the presence of increasing concentrations of the ligands in a final reaction volume of 300 µL [50 mM Tris-HCl (pH 7.4), 2.5 mM CaCl2 and 0.2% CHAPS]. Ligands were usually dissolved in aqueous solutions; however, when an organic solvent such as DMSO was required to incorporate, e.g., pregnenolone sulfate, the solvent remained below 1% in the assay buffer. Agarose pellets containing the bound proteins were obtained by centrifugation, washed and resuspended thrice in the presence of 2.5 mM CaCl2, solubilized in 2× Laemmli buffer plus β-mercaptoethanol, and analyzed by Western blotting.
Because all the assays were performed with recombinant proteins, the immune signals provided a single band of the expected size, which was used for the subsequent densitometry analysis. Accordingly, no other regions of the blots provided information and were routinely excluded from the analysis.
Figure S8. Effect of the physiological and nonphysiological sequences of β-End 1-31 and classical σ1R ligands on BiP-σ1R, σ2R-σ1R and NR1 C1-σ1R associations . Agarose-BiP was loaded with σ1Rs, and after the unbound σ1Rs were removed, the agarose-BiP-σ1R complexes were incubated in the absence (control) and presence of increasing concentrations of (A) β-End 1-31 C-terminal physiological derivatives and (B) classical σ1R ligands. C) Agarose-σ2R loaded with σ1Rs was incubated in the absence (control) and with nonphysiological derivatives of β-End 1-31. D) Agarose-NR1 C1 loaded with σ1Rs were incubated in the absence (control) and with nonphysiological derivatives of β-End 1-31. A-D) The σ1Rs that remained attached to the agarose complexes were evaluated by Western blotting. The […]
(1 picture or pasted object on this page, not shown here)
Figure S10. Effect of σ1R agonist/antagonist ligands on σ1R-BiP associations. Agarose-attached BiP proteins were incubated for 30 min in the presence of recombinant σ1R (100 nM) proteins in 300 μL of 50 mM Tris-HCl (pH 7.4), 0.2% CHAPS, and 2.5 mM CaCl2. After the unbound σ1R proteins were […]

Chain of σ1R-σ2R (O55242 whole entry): as above

Row | Compound | effect on σ1R-σ2R association in CHO cells [1] | effect on σ1R-BiP association [2] | activity at σ1R-BiP against agonists / β-End 1–31 [2]
1 | Br.Br.CN(C)CCN(C)CCc1ccc(Cl)c(Cl)c1 [BD1047, N′-[2-(3,4-dichlorophenyl)ethyl]-N,N,N′-trimethylethane-1,2-diamine;dihydrobromide, reference compound] | preserved these protein complexes | did the opposite | –
2 | COC(=O)[C@]1(c2ccc(C)cc2)C[C@@H]1CN1CCC(O)(c2ccccc2)CC1 [PPCC, (1R,2S/1S,2R)-2-[4-hydroxy-4-phenylpiperidin-1-yl)methyl]-1-(4-methylphenyl) cyclopropanecarboxylate, reference compound] | – | impaired σ1R associations with σ2R and BiP | –
3 | ^αN-acetyl β-End 1–31: β-End 1–31 acetylated at N terminal Y1, α position | preserved these protein complexes | weak at σ1R-BiP associations; also recorded: inactive | neither exhibited activity at σ1R-BiP nor reduced the effect of β-End 1–31
4 | β-End 1–27: β-End 1–31 derivative without 4 C-terminal residues (YGGFMTSEKSQTPLVTLFKNAIIKNAY; Beta-endorphin; UniProt P01189 237-263, looked up, fragment) | – | disrupted these complexes with potencies in the pM/nM range | –
5 | Cl.O=C(OCCN1CCOCC1)C1(c2ccccc2)CCCCC1 [PRE084, 2-(4-morpholinethyl)-1-phenylcyclohexanecarboxylate hydrochloride, reference compound] | strongly decreased the σ1R-σ2R association | impaired σ1R associations with σ2R and BiP | –
6 | YKKGE [β-End 27–31, C-terminal pentapeptide of β-End 1–31] | – | increased | –
7 | Cc1cc(OCCN2CCOCC2)nn1-c1ccc2ccccc2c1 [S1RA] | preserved these protein complexes | did the opposite | –
8 | KKGE [β-End 28–31, C-terminal tetrapeptide of β-End 1–31] | – | weak direct effect on σ1R-BiP complexes | neither exhibited activity at σ1R-BiP nor reduced the effect of β-End 1–31
9 | β-End 1–26: β-End 1–31 derivative without 5 C-terminal residues (YGGFMTSEKSQTPLVTLFKNAIIKNA; Beta-endorphin; UniProt P01189 237-262, looked up, fragment) | – | disrupted these complexes with potencies in the pM/nM range | –
